Data reported in US7371773B2, “Breast cancer resistance protein (BCRP) inhibitor” (Kabushiki Kaisha Yakult Honsha, priority 2003, dated 2008).
Values after ≈ are worked out from the molar mass of the structure shown. Where a name gives a salt, the structure may show the parent alone. Read-outs that look alike come from different tables or passages of the source.

Assays:
[1] = tested on: MES-SA/Dx5 cell line; assay: Effect on multidrug resistance of MES-SA/Dx5 cell line; type: cell-based; details: Homo sapiens; paclitaxel resistance, MES-SA/Dx5 (P-glycoprotein overexpression), 48 hours; read-out: Resistance overcoming effect EC50
Method: Human uterine cancer MES-SA cell line or MES-SA/Dx5 cell line which had acquired multidrug resistance through overexpression of P-glycoprotein [Cancer Res. 45, 4091-4096 (1985)] was suspended in 10% FBS/DMEM, and the resultant suspension was inoculated into a 96-well microplate, followed by culturing at 5% CO2 and 37° C. overnight (3×10^3 cells/50 μL/well). Thereafter, a solution of a diphenylacrylonitrile derivative and paclitaxel in 10% FBS/DMEM (25 μL) was added to each of the wells, followed by culturing at 5% CO2 and 37° C. for 48 hours. After completion of culturing, the number of viable cells was counted by use of TetraColor ONE according to the attached instruction manual.

[2] = tested on: A549/SN-38-4 cell line; assay: Overcoming anticancer drug resistance of A549/SN-38-4 cell line; type: cell-based, human; details: for EC50: Homo sapiens, A549, read-out: Resistance overcoming effect EC50
Method: The effect of a diphenylacrylonitrile derivative on BCRP-mediated anticancer drug resistance was studied by use of the human lung cancer A549/SN-38-4 cell line, which had acquired anticancer drug resistance through BCRP expression. The human lung cancer A549 cell line or the A549/SN-38-4 cell line was suspended in 10% FBS/Ham's F-12, and the resultant suspension was inoculated into a 96-well microplate, followed by culturing at 5% CO2 and 37° C. overnight (2×10^3 cells/50 μL/well). Thereafter, a 10% FBS/Ham's F-12 solution (25 μL) containing a diphenylacrylonitrile derivative and SN-38 or mitoxantrone was added to each of the wells, followed by culturing at 5% CO2 and 37° C. for 48 hours. After completion of culturing, the number of viable cells was counted by use of TetraColor ONE according to the attached instruction manual. […] The greater the relative resistance value, the higher the level of acquired resistance.

[3] = tested on: P388/BCRP cell line; assay: Overcoming anticancer drug resistance in vivo (survival of tumor-implanted mice); set-up: species or system CDF1 mice; details: compound 100 mg/kg/day + CPT-11 20 mg/kg/day i.p. once a day, 10 administrations
[4] = SN-38 resistance, concentration for 50% reduction of relative resistance value, 48 hours

| EC50 [2, 4] | Molecule | EC50 [1] | further results |
| --- | --- | --- | --- |
| 0.028 µg/mL (≈ 0.0899 µM) | COc1ccc(/C(C#N)=C/c2cccc(O)c2OC)cc1OC [Compound 9, (Z)-2-(3,4-dimethoxy-phenyl)-3-(3-hydroxy-2-methoxy-phenyl)-acrylonitrile] | > 1 µg/mL | – |
| 0.28 µg/mL (≈ 0.813 µM) | COc1ccc(/C(C#N)=C/c2ccc(Br)cc2)cc1OC [Compound 12, (Z)-3-(4-bromo-phenyl)-2-(3,4-dimethoxy-phenyl)-acrylonitrile] | > 1 µg/mL | – |
| 0.098 µg/mL (≈ 0.348 µM) | COc1ccc(/C(C#N)=C/c2ccccc2O)cc1OC [Compound 6, (Z)-2-(3,4-dimethoxy-phenyl)-3-(2-hydroxy-phenyl)-acrylonitrile] | > 1 µg/mL | – |
| 0.033 µg/mL (≈ 0.0852 µM) | COCCOCOc1ccc(/C=C(\C#N)c2ccc(OC)c(OC)c2)cc1F [Compound 58, (Z)-2-(3,4-dimethoxy-phenyl)-3-[3-fluoro-4-(2-methoxy-ethoxymethoxy)-phenyl]-acrylonitrile] | – | – |
| 0.028 µg/mL (≈ 0.0869 µM) | COc1ccc(C(C#N)=Cc2cccc(NC(C)=O)c2)cc1OC [Compound 72, N-[3-[2-cyano-2-(3,4-dimethoxy-phenyl)-vinyl]-phenyl]-acetamide] | – | – |
| 0.022 µg/mL (≈ 0.0758 µM) | COc1ccc(/C(C#N)=C/c2ccc(C#N)cc2)cc1OC [Compound 21, 4-[(Z)-2-cyano-2-(3,4-dimethoxy-phenyl)-vinyl]-benzonitrile] | – | – |
| 0.15 µg/mL (≈ 0.498 µM) | COc1ccc(/C(C#N)=C/c2c(F)cccc2F)cc1OC [Compound 32, (Z)-3-(2,6-difluoro-phenyl)-2-(3,4-dimethoxy-phenyl)-acrylonitrile] | – | – |
| 0.024 µg/mL (≈ 0.0677 µM) | CCOc1ccc([N+](=O)[O-])cc1/C=C(\C#N)c1ccc(OC)c(OC)c1 [Compound 52, (Z)-2-(3,4-dimethoxy-phenyl)-3-(2-ethoxy-5-nitro-phenyl)-acrylonitrile] | – | – |
| 0.019 µg/mL (≈ 0.0612 µM) | COc1ccc(/C(C#N)=C/c2cccc([N+](=O)[O-])c2)cc1OC [Compound 33, (Z)-2-(3,4-dimethoxy-phenyl)-3-(3-nitro-phenyl)-acrylonitrile] | – | – |
| 0.022 µg/mL (≈ 0.073 µM) | COc1ccc(/C(C#N)=C/c2cccc(F)c2F)cc1OC [Compound 22, (Z)-3-(2,3-difluoro-phenyl)-2-(3,4-dimethoxy-phenyl)-acrylonitrile] | – | – |
| 0.024 µg/mL | CCOc1cc(/C(C#N)=C/c2ccc(OC)c(OC)c2)ccc1OC(C)=O [Compound 63, 4-[(Z)-1-cyano-2-(3,4-dimethoxy-phenyl)-vinyl]-2-ethoxy-phenyl acetate] | – | – |
| 0.37 µg/mL (≈ 1.01 µM) | CCOC(=O)COc1ccc(/C=C(\C#N)c2ccc(OC)c(OC)c2)cc1 [Compound 35, ethyl [4-[(Z)-2-cyano-2-(3,4-dimethoxy-phenyl)-vinyl]-phenoxy]-acetate] | – | – |

Continued, molecule first:

| Molecule | EC50 [2, 4] | EC50 [1] | further results |
| --- | --- | --- | --- |
| CCCCOc1ccc(/C(C#N)=C/c2ccc(O)cc2)cc1 [Compound 14, (Z)-2-(4-butoxy-phenyl)-3-(4-hydroxy-phenyl)-acrylonitrile] | 0.047 µg/mL (≈ 0.16 µM) | > 1 µg/mL | – |
| N#C/C(=C\c1ccc(O)cc1)c1ccc(O)cc1 [Compound 16, (Z)-2,3-bis-(4-hydroxy-phenyl)-acrylonitrile] | 0.098 µg/mL (≈ 0.413 µM) | > 1 µg/mL | Survival days Mean ± S.D. ([3]; Table 6): 19.2 ± 0.4 days; T/C ([3]; Table 6): 160% |
| COc1ccc(/C(C#N)=C/c2ccc(O)cc2)cc1OC [Compound 1, (Z)-2-(3,4-dimethoxyphenyl)-3-(4-hydroxyphenyl)acrylonitrile] | 0.051 µg/mL (≈ 0.181 µM) | > 1 µg/mL | Survival days Mean ± S.D. ([3]; Table 6): 19.4 ± 1.1 days; T/C ([3]; Table 6): 162% |
| COc1ccc(/C(C#N)=C/c2cccc(O)c2)cc1OC [Compound 5, (Z)-2-(3,4-dimethoxy-phenyl)-3-(3-hydroxy-phenyl)-acrylonitrile] | 0.021 µg/mL (≈ 0.0747 µM) | > 1 µg/mL | Survival days Mean ± S.D. ([3]; Table 6): 19.2 ± 1.1 days; T/C ([3]; Table 6): 160% |
| COc1ccc(/C(C#N)=C/c2cc(C)c(O)c(C)c2)cc1OC [Compound 10, (Z)-2-(3,4-dimethoxy-phenyl)-3-(4-hydroxy-3,5-dimethyl-phenyl)-acrylonitrile] | 0.023 µg/mL (≈ 0.0743 µM) | > 1 µg/mL | – |
| COc1ccc(/C(C#N)=C/c2ccc(OC(=O)N3CCC(N4CCCCC4)CC3)cc2)cc1OC [Compound 2, 4-[(Z)-2-cyano-2-(3,4-dimethoxy-phenyl)-vinyl]-phenyl [1,4′]bipiperidinyl-1′-carboxylate] | 0.41 µg/mL (≈ 0.862 µM) | > 1 µg/mL | – |
| COc1cc(/C=C(\C#N)c2ccc(OC)c(OC)c2)ccc1O [Compound 7, (Z)-2-(3,4-dimethoxy-phenyl)-3-(4-hydroxy-3-methoxy-phenyl)-acrylonitrile] | 0.025 µg/mL (≈ 0.0803 µM) | > 1 µg/mL | Survival days Mean ± S.D. ([3]; Table 6): 20.0 ± 0.7 days; T/C ([3]; Table 6): 167% |
| COc1cc(/C(C#N)=C/c2ccc(O)cc2)cc(OC)c1OC [Compound 15, (Z)-3-(4-hydroxy-phenyl)-2-(3,4,5-trimethoxy-phenyl)-acrylonitrile] | 0.023 µg/mL (≈ 0.0739 µM) | > 1 µg/mL | – |
| COc1ccc(/C(C#N)=C/c2cccc(N)c2)cc1OC [Compound 68, (Z)-3-(3-amino-phenyl)-2-(3,4-dimethoxy-phenyl)-acrylonitrile hydrochloride] | – | – | Survival days Mean ± S.D. ([3]; Table 7, hydrochloride): 18.8 ± 2.9 days; Resistance overcoming effect EC50 [2]: 0.048 µg/mL |
| COc1ccc(/C(C#N)=C/c2cccc(N)c2)cc1OC [Compound 57, (Z)-3-(3-amino-phenyl)-2-(3,4-dimethoxy-phenyl)-acrylonitrile] | 0.037 µg/mL (≈ 0.132 µM) | – | Survival days Mean ± S.D. ([3]; Table 7): 18.8 ± 0.8 days; T/C ([3]; Table 7): 145% |
| COc1ccc(/C(C#N)=C/c2cccc(F)c2)cc1OC [Compound 13, (Z)-2-(3,4-dimethoxy-phenyl)-3-(3-fluoro-phenyl)-acrylonitrile] | 0.013 µg/mL (≈ 0.0459 µM) | > 1 µg/mL | Survival days Mean ± S.D. ([3]; Table 6): 20.6 ± 0.9 days; T/C ([3]; Table 6): 172% |
| COCCOCOc1ccc(/C=C(\C#N)c2ccc(OC)c(OC)c2)cc1 [Compound 4, (Z)-2-(3,4-dimethoxy-phenyl)-3-[4-(2-methoxy-ethoxymethoxy)-phenyl]-acrylonitrile] | 0.079 µg/mL (≈ 0.214 µM) | > 1 µg/mL | – |
| (Z)-2-(3,4-dimethoxyphenyl)-3-(4-β-maltosyl-phenyl)-acrylonitrile [Compound 51] | – | – | Resistance overcoming effect EC50 [2, 4]: 0.045 µg/mL |
| CCOc1cc(/C=C(\C#N)c2ccc(OC)c(OC)c2)ccc1O [Compound 11, (Z)-2-(3,4-dimethoxy-phenyl)-3-(3-ethoxy-4-hydroxy-phenyl)-acrylonitrile] | 0.047 µg/mL (≈ 0.144 µM) | > 1 µg/mL | Survival days Mean ± S.D. ([3]; Table 6): 19.4 ± 0.5 days; T/C ([3]; Table 6): 162% |
| COc1ccc(/C(C#N)=C/c2cc(F)c(F)c(F)c2)cc1OC [Compound 31, (Z)-2-(3,4-dimethoxy-phenyl)-3-(3,4,5-trifluoro-phenyl)-acrylonitrile] | 0.015 µg/mL (≈ 0.047 µM) | – | – |
| COc1ccc(/C(C#N)=C/c2ccc(OC(=O)CCC(=O)Oc3ccc(/C=C(\C#N)c4ccc(OC)c(OC)c4)cc3)cc2)cc1OC [Compound 43, bis-{4-[(Z)-2-cyano-2-(3,4-dimethoxy-phenyl)-vinyl]-phenyl} succinate] | 0.12 µg/mL | – | – |
| COc1ccc(/C(C#N)=C/c2ccc(OC(C)=O)cc2)cc1OC [Compound 3, 4-[(Z)-2-cyano-2-(3,4-dimethoxy-phenyl)-vinyl]-phenyl acetate] | 0.02 µg/mL | > 1 µg/mL | Survival days Mean ± S.D. ([3]; Table 6): 19.8 ± 0.8 days; T/C ([3]; Table 6): 165% |
| COc1ccc(/C(C#N)=C/c2ccc(O)c(O)c2)cc1OC [Compound 8, (Z)-3-(3,4-dihydroxy-phenyl)-2-(3,4-dimethoxy-phenyl)-acrylonitrile] | 0.035 µg/mL (≈ 0.118 µM) | > 1 µg/mL | Survival days Mean ± S.D. ([3]; Table 6): 19.2 ± 0.8 days; T/C ([3]; Table 6): 160% |
| COc1ccc(/C(C#N)=C/c2cc(F)cc(F)c2)cc1OC [Compound 26, (Z)-3-(3,5-difluoro-phenyl)-2-(3,4-dimethoxy-phenyl)-acrylonitrile] | < 0.005 µg/mL | – | – |
| COc1cc(/C(C#N)=C/c2ccc(OC(C)=O)cc2)cc(OC)c1OC [Compound 65, 4-[(Z)-2-cyano-2-(3,4,5-trimethoxy-phenyl)-vinyl]-phenyl acetate] | 0.2 µg/mL | – | – |
| (Z)-2-(3,4-dimethoxyphenyl)-3-[4-(6-phospho-β-D-glucopyranosyl)-phenyl]-acrylonitrile sodium salt [Compound 75] | – | – | Resistance overcoming effect EC50 [2, 4]: >1.0 µg/mL |
